Experimental data: patent publication US20070172957A1, “Methods of identifying anti-inflammatory macrolides” (TAISHO PHARMACEUTICAL CO., LTD., priority 2004, published 2007)

System: genes predictive for the anti-inflammatory macrolide effect
Test: Genes statistically predictive of Clari response: differentially expressed with Clari but not the inactive macrolides MAA or Josa (Appendix E)
Assay type: cell-based
Source text: In the case of the above-mentioned (i) related to arachidonic acid biosynthesis, specifically, methods of the embodiment involve assaying whether a test macrolide alters biosynthesis of arachidonic acid, alters the expression or activities of enzymes involved in the biosynthesis or activation of arachidonic acid (e.g., arachidonic acid CoA synthetase, delta-6 desaturase, fatty acid elongase, and delta-5 desaturase, AA-related genes in Tables 2 and 3), or alters the expression of genes identified as predictive for the anti-inflammatory macrolide effect (Appendix E). Assays in which arachidonic acid or gene expression or enzymatic activity is detected can be carried out after contacting a cell with a test macrolide. Any cell line that secretes prostaglandin or produces arachidonic acid can be used. Epithelial and macrophages lines (e.g., A549 or THP-1) are suitable for this purpose; other cell lines can be identified by carrying out assays such as those described in the specific Examples, below. Alternatively, screening assays can be carried out after adding a test macrolide to an in vitro cell system (e.g., a cellular extract or liver microsome preparation) or an in vitro enzyme assay system.

## CC[C@H]1OC(=O)[C@H](C)[C@@H](O[C@H]2C[C@@](C)(OC)[C@@H](O)[C@H](C)O2)[C@H](C)[C@@H](O[C@@H]2O[C@H](C)C[C@H](N(C)C)[C@H]2O)[C@](C)(OC)C[C@@H](C)C(=O)[C@H](C)[C@@H](O)[C@]1(C)O [clarithromycin]
SpotID 46579, MAA and Josa vs. Clari
  group mean, gene SERPING1: 0.86
SpotID 46586, MAA and Josa vs. Clari
  group mean, gene C12orf8: 1.22
SpotID 46633, pooled group mean
  mean group, FLJ20699: 0.81
SpotID 46648, pooled group mean
  mean group, ARHGAP1: 0.96
SpotID 46679, MAA and Josa vs. Clari
  group mean, gene KIAA1172: 0.91
SpotID 46679, pooled group mean
  mean group, KIAA1172: 0.92
SpotID 46825, MAA and Josa vs. Clari
  group mean, gene MKNK2: 1.15
SpotID 46825, pooled group mean
  mean group, MKNK2: 1.12
SpotID 46838, MAA and Josa vs. Clari
  group mean, gene PRKAR1A: 0.92
SpotID 46843, MAA and Josa vs. Clari
  group mean, gene ARHGDIA: 0.91
SpotID 46843, pooled group mean
  mean group, ARHGDIA: 0.93
SpotID 46882, MAA and Josa vs. Clari
  group mean, gene HEXA: 1.14
SpotID 46896, MAA and Josa vs. Clari
  group mean, gene CDIPT: 1.04
SpotID 46896, pooled group mean
  mean group, CDIPT: 1.01
SpotID 46923, pooled group mean
  mean group, PACE: 1.09
SpotID 46935, MAA and Josa vs. Clari
  group mean, gene METAP2: 0.88
SpotID 46935, pooled group mean
  mean group, METAP2: 0.89
SpotID 46979, MAA and Josa vs. Clari
  group mean, gene HSPBP1: 0.87
SpotID 46988, pooled group mean
  mean group, EREG: 0.85
SpotID 46991, MAA and Josa vs. Clari
  group mean, gene TFPI2: 0.57
SpotID 47034, MAA and Josa vs. Clari
  group mean, gene C2orf3: 0.87
SpotID 47034, pooled group mean
  mean group, C2orf3: 0.90
SpotID 47056, MAA and Josa vs. Clari
  group mean, gene NFRKB: 0.82
SpotID 47111, MAA and Josa vs. Clari
  group mean, gene GOLGB1: 1.17
SpotID 47123, MAA and Josa vs. Clari
  group mean, gene MCM2: 0.78
SpotID 47131, MAA and Josa vs. Clari
  group mean, gene KIAA0251: 1.07
SpotID 47192, MAA and Josa vs. Clari
  group mean, gene ARHGAP1: 0.94
SpotID 47212, MAA and Josa vs. Clari
  group mean, gene ITGB5: 1.12
SpotID 47241, pooled group mean
  mean group, NUBP1: 0.95
SpotID 47249, MAA and Josa vs. Clari
  group mean, gene AKR1A1: 1.08
SpotID 47251, MAA and Josa vs. Clari
  group mean, gene HKE4: 1.13
SpotID 47314, pooled group mean
  mean group, EPOR: 1.14
SpotID 47352, MAA and Josa vs. Clari
  group mean, gene ADAM11: 1.18
SpotID 47352, pooled group mean
  mean group, ADAM11: 1.10
SpotID 47354, MAA and Josa vs. Clari
  group mean, gene ERF: 1.00
SpotID 47366, pooled group mean
  mean group, P4HB: 1.18
SpotID 47406, MAA and Josa vs. Clari
  group mean, gene MTHFD1: 0.93
SpotID 47415, pooled group mean
  mean group, CETN2: 1.18
SpotID 47418, MAA and Josa vs. Clari
  group mean, gene SNK: 0.77
SpotID 47418, pooled group mean
  mean group, SNK: 0.82
SpotID 47432, pooled group mean
  mean group, GCS1: 1.02
SpotID 47439, MAA and Josa vs. Clari
  group mean, gene DCTN1: 0.93
SpotID 47439, pooled group mean
  mean group, DCTN1: 0.95
SpotID 47446, MAA and Josa vs. Clari
  group mean, gene RANBP1: 0.83
SpotID 47446, pooled group mean
  mean group, RANBP1: 0.89
SpotID 47504, pooled group mean
  mean group, MSH3: 0.99
SpotID 47522, pooled group mean
  mean group, SERPINA1: 0.95
SpotID 47524, MAA and Josa vs. Clari
  group mean, gene PTK2B: 1.08
SpotID 47535, MAA and Josa vs. Clari
  group mean, gene ARHGDIA: 0.91
SpotID 47622, MAA and Josa vs. Clari
  group mean, gene TRAP1: 0.89
SpotID 47622, pooled group mean
  mean group, TRAP1: 0.94
SpotID 47661, MAA and Josa vs. Clari
  group mean, gene HSPA9B: 0.90
SpotID 47679, pooled group mean
  mean group, NR4A2: 1.14
SpotID 47694, MAA and Josa vs. Clari
  group mean, gene HSPA9B: 0.90
SpotID 47694, pooled group mean
  mean group, HSPA9B: 0.95
SpotID 47705, MAA and Josa vs. Clari
  group mean, gene MAD4: 1.42
SpotID 47754, MAA and Josa vs. Clari
  group mean, gene NBS1: 0.89
SpotID 47754, pooled group mean
  mean group, NBS1: 0.97
SpotID 47755, MAA and Josa vs. Clari
  group mean, gene KIAA1922: 0.79
SpotID 47776, MAA and Josa vs. Clari
  group mean, gene POLA: 0.86
SpotID 47776, pooled group mean
  mean group, POLA: 0.89
SpotID 47793, MAA and Josa vs. Clari
  group mean, gene BET3: 1.08
SpotID 47802, MAA and Josa vs. Clari
  group mean, gene GOT1: 0.93
SpotID 47802, pooled group mean
  mean group, GOT1: 0.94
SpotID 47811, MAA and Josa vs. Clari
  group mean, gene ENTPD6: 1.11
SpotID 47811, pooled group mean
  mean group, ENTPD6: 1.06
SpotID 47846, pooled group mean
  mean group, SSI-1: 0.93
SpotID 47850, MAA and Josa vs. Clari
  group mean, gene PRLR: 0.99
SpotID 47850, pooled group mean
  mean group, PRLR: 0.99
SpotID 47898, MAA and Josa vs. Clari
  group mean, gene ERF: 1.01
SpotID 47911, MAA and Josa vs. Clari
  group mean, gene YWHAE: 0.95
SpotID 47926, MAA and Josa vs. Clari
  group mean, gene CCNE2: 0.73
SpotID 47935, MAA and Josa vs. Clari
  group mean, gene P4HA1: 1.27
SpotID 47935, pooled group mean
  mean group, P4HA1: 1.18
SpotID 47937, MAA and Josa vs. Clari
  group mean, gene CTSB: 1.15
SpotID 47939, MAA and Josa vs. Clari
  group mean, gene INPP5E: 0.89
SpotID 47947, MAA and Josa vs. Clari
  group mean, gene SF3B3: 0.93
SpotID 47949, MAA and Josa vs. Clari
  group mean, gene BCKDK: 0.94
SpotID 47950, MAA and Josa vs. Clari
  group mean, gene DNASE1L1: 1.06
SpotID 47950, pooled group mean
  mean group, DNASE1L1: 1.03
SpotID 47951, MAA and Josa vs. Clari
  group mean, gene COX15: 0.94
SpotID 47973, pooled group mean
  mean group, USF2: 1.05
SpotID 47987, MAA and Josa vs. Clari
  group mean, gene THBS1: 0.60
SpotID 47987, pooled group mean
  mean group, THBS1: 0.71
SpotID 47988, pooled group mean
  mean group, RPN2: 1.02
SpotID 47995, MAA and Josa vs. Clari
  group mean, gene PTGER1: 0.73
SpotID 48000, MAA and Josa vs. Clari
  group mean, gene CTSH: 1.22
SpotID 48004, pooled group mean
  mean group, CUTL1: 1.02
SpotID 48006, MAA and Josa vs. Clari
  group mean, gene BCL2L2: 1.02
SpotID 48026, pooled group mean
  mean group, SRF: 1.03
SpotID 48121, MAA and Josa vs. Clari
  group mean, gene SCN1B: 1.07
SpotID 48137, pooled group mean
  mean group, FRDA: 0.90
SpotID 48149, MAA and Josa vs. Clari
  group mean, gene SFRS7: 0.85
SpotID 48149, pooled group mean
  mean group, SFRS7: 0.88
SpotID 48160, MAA and Josa vs. Clari
  group mean, gene ZAP3: 0.92
SpotID 48160, pooled group mean
  mean group, ZAP3: 0.95
SpotID 48182, MAA and Josa vs. Clari
  group mean, gene SNAPC1: 0.87
SpotID 48192, MAA and Josa vs. Clari
  group mean, gene OPA1: 0.90
SpotID 48214, MAA and Josa vs. Clari
  group mean, gene BAT8: 1.11
SpotID 48233, MAA and Josa vs. Clari
  group mean, gene MAPK12: 1.05
SpotID 48233, pooled group mean
  mean group, MAPK12: 1.03
SpotID 48235, MAA and Josa vs. Clari
  group mean, gene DAXX: 0.93
SpotID 48266, MAA and Josa vs. Clari
  group mean, gene GRB2: 1.06
SpotID 48266, pooled group mean
  mean group, GRB2: 1.04
SpotID 48280, MAA and Josa vs. Clari
  group mean, gene ARHC: 1.01
SpotID 48301, MAA and Josa vs. Clari
  group mean, gene GCN5L1: 1.02
SpotID 48301, pooled group mean
  mean group, GCN5L1: 1.01
SpotID 48328, MAA and Josa vs. Clari
  group mean, gene FN1: 0.53
SpotID 48333, MAA and Josa vs. Clari
  group mean, gene DNMT1: 0.79
SpotID 48345, pooled group mean
  mean group, CCT3: 1.03
SpotID 48348, MAA and Josa vs. Clari
  group mean, gene FN1: 0.53
SpotID 48363, MAA and Josa vs. Clari
  group mean, gene CNOT2: 0.92
SpotID 48365, MAA and Josa vs. Clari
  group mean, gene MAPK9: 0.92
SpotID 48365, pooled group mean
  mean group, MAPK9: 0.94
SpotID 48396, MAA and Josa vs. Clari
  group mean, gene CNOT2: 0.91
SpotID 48397, MAA and Josa vs. Clari
  group mean, gene HIF1A: 0.89
SpotID 48411, MAA and Josa vs. Clari
  group mean, gene MGEA5: 1.19
SpotID 48411, pooled group mean
  mean group, MGEA5: 1.13
SpotID 48415, MAA and Josa vs. Clari
  group mean, gene SERPINB1: 1.32
SpotID 48415, pooled group mean
  mean group, SERPINB1: 1.28
SpotID 48451, MAA and Josa vs. Clari
  group mean, gene M6PR: 1.12
SpotID 48456, MAA and Josa vs. Clari
  group mean, gene DDC: 0.94
SpotID 48456, pooled group mean
  mean group, DDC: 0.97
SpotID 48461, pooled group mean
  mean group, BARD1: 0.86
SpotID 48470, MAA and Josa vs. Clari
  group mean, gene MCM5: 0.68
SpotID 48471, MAA and Josa vs. Clari
  group mean, gene RBM3: 0.87
SpotID 48486 (gene symbol not given), pooled group mean
  mean group, SpotID 48486: 0.94
SpotID 48500, MAA and Josa vs. Clari
  group mean, gene RPL13A: 0.90
SpotID 48500, pooled group mean
  mean group, RPL13A: 0.92
SpotID 48508, MAA and Josa vs. Clari
  group mean, gene USP24: 0.87
SpotID 48521, MAA and Josa vs. Clari
  group mean, gene ARAF1: 0.95
SpotID 48521, pooled group mean
  mean group, ARAF1: 0.98
SpotID 48530, MAA and Josa vs. Clari
  group mean, gene APLP2: 1.15
SpotID 48530, pooled group mean
  mean group, APLP2: 1.10
SpotID 48557, pooled group mean
  mean group, NFE2L1: 1.06
SpotID 48620, pooled group mean
  mean group, XBP1: 1.10
SpotID 48643, MAA and Josa vs. Clari
  group mean, gene DIP2: 0.87
SpotID 48644, MAA and Josa vs. Clari
  group mean, gene KIAA0323: 1.14
SpotID 48646, MAA and Josa vs. Clari
  group mean, gene SDCBP: 1.11
SpotID 48646, pooled group mean
  mean group, SDCBP: 1.08
SpotID 48654, pooled group mean
  mean group, FECH: 0.98
SpotID 48672, MAA and Josa vs. Clari
  group mean, gene CHK: 1.01
SpotID 48693, MAA and Josa vs. Clari
  group mean, gene HSPBP1: 0.87
SpotID 48693, pooled group mean
  mean group, HSPBP1: 0.91
SpotID 48705, MAA and Josa vs. Clari
  group mean, gene SIGIRR: 1.12
SpotID 48707, MAA and Josa vs. Clari
  group mean, gene P4HA1: 1.25
SpotID 48707, pooled group mean
  mean group, P4HA1: 1.18
SpotID 48713, MAA and Josa vs. Clari
  group mean, gene MKNK2: 1.22
SpotID 48717, pooled group mean
  mean group, PPP3CB: 0.95
SpotID 48725, MAA and Josa vs. Clari
  group mean, gene IKKE: 0.97
SpotID 48725, pooled group mean
  mean group, IKKE: 0.94
SpotID 48732, pooled group mean
  mean group, RALA: 1.06
SpotID 48747, pooled group mean
  mean group, MAFB: 0.93
SpotID 48804, MAA and Josa vs. Clari
  group mean, gene KIAA0217: 0.85
SpotID 48804, pooled group mean
  mean group, KIAA0217: 0.88
